Values after ≈ are worked out from the molar mass of the structure shown.
Key:
Format in all cases: functional
[1] = system: Mycobacterium intracellulare; assay: Antibacterial activity against Mycobacterium intracellular.
[2] = system: Mycobacterium tuberculosis; assay: Antibacterial activity against Mycobacterium tuberculosis H37Rv.
Mycobacterium kansasii = assay: Antibacterial activity against Mycobacterium kansasii

Row | SMILES | MIC [1] [µg/mL] | MIC [2] [µg/mL] | MIC (Mycobacterium kansasii) [µg/mL]
1 | CCCCCC(=O)OCCCNC(=O)c1ccccc1SSc1ccccc1C(=O)NCCCOC(=O)CCCCC | 12.5 (≈ 20.3 µM) | 3.13 (≈ 5.07 µM) | 0.39 (≈ 0.632 µM)
2 | O=C(Nc1cccc(C(F)(F)F)c1)c1ccccc1SSc1ccccc1C(=O)Nc1cccc(C(F)(F)F)c1 | 25 (≈ 42.2 µM) | 12.5 (≈ 21.1 µM) | 25 (≈ 42.2 µM)
3 | O=C1c2ccccc2S(=O)(=O)N1CO | 100 (≈ 469 µM) | > 100 | > 100
4 | CCCCCCCCCCCCCCCCCCNC(=O)c1ccccc1SSc1ccccc1C(=O)NCCCCCCCCCCCCCCCCCC | > 100 | 100 (≈ 124 µM) | > 100
5 | O=c1c2ccccc2sn1CO | 12.5 (≈ 69 µM) | 12.5 (≈ 69 µM) | 12.5 (≈ 69 µM)
6 | CCCCCCCC(=O)OCCCNC(=O)c1ccccc1SSc1ccccc1C(=O)NCCCOC(=O)CCCCCCC | 12.5 (≈ 18.6 µM) | 0.39 (≈ 0.58 µM) | 0.78 (≈ 1.16 µM)
7 | O=C(Nc1ccc(S(=O)(=O)Nc2nc3ccccc3s2)cc1)c1ccccc1SSc1ccccc1C(=O)Nc1ccc(S(=O)(=O)Nc2nc3ccccc3s2)cc1 | 100 (≈ 113 µM) | 100 (≈ 113 µM) | 50 (≈ 56.7 µM)
8 | O=C(Nc1ccc(Br)c2ccccc12)c1ccccc1SSc1ccccc1C(=O)Nc1ccc(Br)c2ccccc12 | > 100 | 12.5 (≈ 17.5 µM) | 50 (≈ 70 µM)
9 | O=C(NC1CCC(O)CC1)c1ccccc1SSc1ccccc1C(=O)NC1CCC(O)CC1 (stereo not drawn) | 25 (≈ 49.9 µM) | 12.5 (≈ 25 µM) | 25 (≈ 49.9 µM)
10 | CCOc1ccc2nc(NC(=O)c3ccccc3SSc3ccccc3C(=O)Nc3nc4ccc(OCC)cc4s3)sc2c1 | > 100 | > 100 | > 100
11 | O=C(Nc1c([N+](=O)[O-])ccc2ccccc12)c1ccccc1SSc1ccccc1C(=O)Nc1c([N+](=O)[O-])ccc2ccccc12 | > 100 | 50 (≈ 77.3 µM) | 50 (≈ 77.3 µM)
12 | COC(CNC(=O)c1ccccc1SSc1ccccc1C(=O)NCC(OC)OC)OC | 12.5 (≈ 26 µM) | 3.13 (≈ 6.51 µM) | 12.5 (≈ 26 µM)
13 | CCCCCCCCCCCC(=O)OCCNC(=O)c1ccccc1SSc1ccccc1C(=O)NCCOC(=O)CCCCCCCCCCC | 100 (≈ 132 µM) | 6.25 (≈ 8.26 µM) | 25 (≈ 33 µM)
14 | CCCCCCCCCCCCCCCC(=O)OCCCNC(=O)c1ccccc1SSc1ccccc1C(=O)NCCCOC(=O)CCCCCCCCCCCCCCC | > 100 | 50 (≈ 55.7 µM) | 100 (≈ 111 µM)
15 | O=C(c1ccccc1SSc1ccccc1C(=O)N1CCN(c2ccccc2)CC1)N1CCN(c2ccccc2)CC1 | 25 (≈ 42 µM) | 12.5 (≈ 21 µM) | 50 (≈ 84.1 µM)
16 | O=C(NCCO)c1ccc(Cl)cc1SSc1ccc(Cl)cc1C(=O)NCCO | 50 (≈ 108 µM) | 6.25 (≈ 13.5 µM) | 25 (≈ 54.2 µM)
17 | CCCCCCCCCC(=O)OCCCNC(=O)c1ccccc1SSc1ccccc1C(=O)NCCCOC(=O)CCCCCCCCC | 12.5 (≈ 17.1 µM) | 0.39 (≈ 0.535 µM) | 0.39 (≈ 0.535 µM)
18 | CCOC(=O)c1ccc(NC(=O)c2ccccc2SSc2ccccc2C(=O)Nc2ccc(C(=O)OCC)cc2)cc1 | 25 (≈ 41.6 µM) | 3.13 (≈ 5.21 µM) | 25 (≈ 41.6 µM)

Row | SMILES | MIC [1] [µg/mL] | MIC [2] [µg/mL] | MIC (Mycobacterium kansasii) [µg/mL]
19 | CC(C)(CO)NC(=O)c1ccccc1SSc1ccccc1C(=O)NC(C)(C)CO | 12.5 (≈ 27.9 µM) | 12.5 (≈ 27.9 µM) | 12.5 (≈ 27.9 µM)
20 | NC(=O)c1ccccc1SSc1ccccc1C(N)=O | 25 (≈ 82.1 µM) | 12.5 (≈ 41.1 µM) | 25 (≈ 82.1 µM)
21 | CCOC(CN1CCN(C(=O)c2ccccc2SSc2ccccc2C(=O)N2CCN(CC(OCC)c3ccccc3)CC2)CC1)c1ccccc1 (stereo not drawn) | > 100 | > 100 | > 100
22 | CCCCCCCCCCCCCCCC(=O)OC(C)CNC(=O)c1ccccc1SSc1ccccc1C(=O)NCC(C)OC(=O)CCCCCCCCCCCCCCC (stereo not drawn) | > 100 | 25 (≈ 27.9 µM) | > 100
23 | O=C(NC1CCCCC1)c1ccccc1SSc1ccccc1C(=O)NC1CCCCC1 | > 100 | 12.5 (≈ 26.7 µM) | 100 (≈ 213 µM)
24 | CCCC(=O)OCCCNC(=O)c1ccccc1SSc1ccccc1C(=O)NCCCOC(=O)CCC | 25 (≈ 44.6 µM) | 6.25 (≈ 11.1 µM) | 6.25 (≈ 11.1 µM)
25 | O=C(Nc1cccc2ccc(O)cc12)c1ccccc1SSc1ccccc1C(=O)Nc1cccc2ccc(O)cc12 | 50 (≈ 84.9 µM) | 50 (≈ 84.9 µM) | 50 (≈ 84.9 µM)
26 | COCCNC(=O)c1ccccc1SSc1ccccc1C(=O)NCCOC | 12.5 (≈ 29.7 µM) | 6.25 (≈ 14.9 µM) | 12.5 (≈ 29.7 µM)
27 | O=C(c1ccccc1SSc1ccccc1C(=O)N1CCOCC1)N1CCOCC1 | > 100 | 12.5 (≈ 28.1 µM) | > 100
28 | O=C(Nc1cccc2cccnc12)c1ccccc1SSc1ccccc1C(=O)Nc1cccc2cccnc12 | > 100 | 25 (≈ 44.7 µM) | 100 (≈ 179 µM)
29 | O=C(c1ccccc1SSc1ccccc1C(=O)N(c1ccccc1)c1ccccc1)N(c1ccccc1)c1ccccc1 | > 100 | > 100 | > 100
30 | CCC(O)CNC(=O)c1ccccc1SSc1ccccc1C(=O)NCC(O)CC (stereo not drawn) | 12.5 (≈ 27.9 µM) | 12.5 (≈ 27.9 µM) | 12.5 (≈ 27.9 µM)
31 | CC(O)CNC(=O)c1ccc(SSc2ccc(C(=O)NCC(C)O)cc2)cc1 (stereo not drawn) | > 100 | 100 (≈ 238 µM) | > 100
32 | Cl.Cl.O=C(NCC1CCNCC1)c1ccccc1SSc1ccccc1C(=O)NCC1CCNCC1 | > 100 | 100 | > 100
33 | CC[C@@H](CO)NCCN[C@@H](CC)CO [ETHAMBUTOL] | 12.5 (≈ 61.2 µM) | 0.78 (≈ 3.82 µM) | 12.5 (≈ 61.2 µM)
34 | NNC(=O)c1ccncc1 [ISONIAZID] | 6.25 (≈ 45.6 µM) | 0.05 (≈ 0.365 µM) | 1.56 (≈ 11.4 µM)
35 | NC[C@H]1O[C@H](O[C@H]2[C@H](O)[C@@H](O[C@H]3O[C@H](CO)[C@@H](O)[C@H](N)[C@H]3O)[C@H](N)C[C@@H]2N)[C@H](O)[C@@H](O)[C@@H]1O [KANAMYCIN] | 6.25 (≈ 12.9 µM) | 3.13 (≈ 6.46 µM) | 25 (≈ 51.6 µM)
36 | CO[C@H]1/C=C/O[C@@]2(C)Oc3c(C)c(O)c4c(O)c(c(/C=N/N5CCN(C)CC5)c(O)c4c3C2=O)NC(=O)/C(C)=C\C=C\[C@H](C)[C@H](O)[C@@H](C)[C@@H](O)[C@@H](C)[C@H](OC(C)=O)[C@@H]1C [RIFAMPIN] | 0.2 (≈ 0.243 µM) | 0.05 (≈ 0.0608 µM) | 0.05 (≈ 0.0608 µM)

— ChEMBL document CHEMBL1122862, “Synthesis and antibacterial activity of 2,2'-dithiobis(benzamide) derivatives against Mycobacterium species” (1985)
